Data: BindingDB's records for patent US9796704 (SYMPHONY EVOLUTION, INC., 2017)

What was measured:
Experiment in all cases: AlphaScreen Assay
[1] = biological target: Receptor tyrosine-protein kinase erbB-2 (Homo sapiens, UniProt P04626)
Experimental: (§1) In AlphaScreen, when the donor and acceptor beads are close in proximity, a series of photochemical events will give rise to a fluorescent signal upon light activation. Here we use biotinylated poly-(Glu, Tyr) 4:1 as the kinase substrate, streptavidin-coated donor beads and anti-phosphortyrosine antibody PY100-coated acceptor beads. […] Compounds, ATP, biotinylated poly-(Glu, Tyr) and kinases are mixed in a volume of 20 μL for 1 hr at ambient temperature using Greiner 384-well white clear bottom medium binding plates. Then 10 uL solution containing 15-30 mg/mL AlphaScreen beads, 75 mM Hepes, pH 7.4, 300 mM NaCl, 120 mM EDTA, 0.3% BSA and 0.03% Tween-20 is added to each well. After 2-16 hr incubation of the beads, plates are read in a Perkin Elmer AlphaQuest reader (available from PerkinElmer Life and Analytical Sciences, Inc., of Boston Mass.).

[2] = biological target: Vascular endothelial growth factor receptor 1 (Homo sapiens, UniProt P17948)
Experimental: as §1

Ephrin type-B receptor 4 = biological target: T1, Ephrin type-B receptor 4 (Homo sapiens, UniProt P54760)
T1 sequence (P54760 whole entry): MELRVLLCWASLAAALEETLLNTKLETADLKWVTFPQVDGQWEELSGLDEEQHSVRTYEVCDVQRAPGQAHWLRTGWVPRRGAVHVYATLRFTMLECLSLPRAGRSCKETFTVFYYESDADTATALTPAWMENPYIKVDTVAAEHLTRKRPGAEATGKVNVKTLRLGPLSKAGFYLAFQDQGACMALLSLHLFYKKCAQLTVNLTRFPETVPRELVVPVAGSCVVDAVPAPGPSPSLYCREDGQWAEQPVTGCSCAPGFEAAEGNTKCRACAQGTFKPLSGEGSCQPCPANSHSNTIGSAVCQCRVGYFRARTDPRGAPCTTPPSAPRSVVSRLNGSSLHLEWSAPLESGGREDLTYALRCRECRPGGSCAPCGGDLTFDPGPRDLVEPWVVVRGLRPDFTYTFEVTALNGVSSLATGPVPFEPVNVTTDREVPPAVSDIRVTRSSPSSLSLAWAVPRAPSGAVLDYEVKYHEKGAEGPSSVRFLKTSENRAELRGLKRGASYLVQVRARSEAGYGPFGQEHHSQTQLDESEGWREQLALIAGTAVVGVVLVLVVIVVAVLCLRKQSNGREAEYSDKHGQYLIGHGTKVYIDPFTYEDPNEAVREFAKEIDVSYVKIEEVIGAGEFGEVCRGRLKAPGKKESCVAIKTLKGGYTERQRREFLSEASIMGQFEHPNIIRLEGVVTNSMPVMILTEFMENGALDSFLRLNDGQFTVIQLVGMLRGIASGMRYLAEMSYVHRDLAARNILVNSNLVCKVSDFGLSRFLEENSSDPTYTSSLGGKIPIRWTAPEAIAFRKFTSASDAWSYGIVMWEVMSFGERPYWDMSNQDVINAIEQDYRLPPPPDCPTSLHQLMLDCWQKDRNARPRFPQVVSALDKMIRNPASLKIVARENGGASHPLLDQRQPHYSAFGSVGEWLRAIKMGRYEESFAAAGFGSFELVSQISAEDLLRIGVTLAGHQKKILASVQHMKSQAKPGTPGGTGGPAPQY
Experimental: as §1

Ephrin type-A receptor 2 = Ephrin type-A receptor 2 (Homo sapiens, UniProt P29317)
Experimental: as §1

[3] = biological target: Vascular endothelial growth factor receptor 2 (Homo sapiens, UniProt P35968)
Sequence of Vascular endothelial growth factor receptor 2 (P35968 whole entry): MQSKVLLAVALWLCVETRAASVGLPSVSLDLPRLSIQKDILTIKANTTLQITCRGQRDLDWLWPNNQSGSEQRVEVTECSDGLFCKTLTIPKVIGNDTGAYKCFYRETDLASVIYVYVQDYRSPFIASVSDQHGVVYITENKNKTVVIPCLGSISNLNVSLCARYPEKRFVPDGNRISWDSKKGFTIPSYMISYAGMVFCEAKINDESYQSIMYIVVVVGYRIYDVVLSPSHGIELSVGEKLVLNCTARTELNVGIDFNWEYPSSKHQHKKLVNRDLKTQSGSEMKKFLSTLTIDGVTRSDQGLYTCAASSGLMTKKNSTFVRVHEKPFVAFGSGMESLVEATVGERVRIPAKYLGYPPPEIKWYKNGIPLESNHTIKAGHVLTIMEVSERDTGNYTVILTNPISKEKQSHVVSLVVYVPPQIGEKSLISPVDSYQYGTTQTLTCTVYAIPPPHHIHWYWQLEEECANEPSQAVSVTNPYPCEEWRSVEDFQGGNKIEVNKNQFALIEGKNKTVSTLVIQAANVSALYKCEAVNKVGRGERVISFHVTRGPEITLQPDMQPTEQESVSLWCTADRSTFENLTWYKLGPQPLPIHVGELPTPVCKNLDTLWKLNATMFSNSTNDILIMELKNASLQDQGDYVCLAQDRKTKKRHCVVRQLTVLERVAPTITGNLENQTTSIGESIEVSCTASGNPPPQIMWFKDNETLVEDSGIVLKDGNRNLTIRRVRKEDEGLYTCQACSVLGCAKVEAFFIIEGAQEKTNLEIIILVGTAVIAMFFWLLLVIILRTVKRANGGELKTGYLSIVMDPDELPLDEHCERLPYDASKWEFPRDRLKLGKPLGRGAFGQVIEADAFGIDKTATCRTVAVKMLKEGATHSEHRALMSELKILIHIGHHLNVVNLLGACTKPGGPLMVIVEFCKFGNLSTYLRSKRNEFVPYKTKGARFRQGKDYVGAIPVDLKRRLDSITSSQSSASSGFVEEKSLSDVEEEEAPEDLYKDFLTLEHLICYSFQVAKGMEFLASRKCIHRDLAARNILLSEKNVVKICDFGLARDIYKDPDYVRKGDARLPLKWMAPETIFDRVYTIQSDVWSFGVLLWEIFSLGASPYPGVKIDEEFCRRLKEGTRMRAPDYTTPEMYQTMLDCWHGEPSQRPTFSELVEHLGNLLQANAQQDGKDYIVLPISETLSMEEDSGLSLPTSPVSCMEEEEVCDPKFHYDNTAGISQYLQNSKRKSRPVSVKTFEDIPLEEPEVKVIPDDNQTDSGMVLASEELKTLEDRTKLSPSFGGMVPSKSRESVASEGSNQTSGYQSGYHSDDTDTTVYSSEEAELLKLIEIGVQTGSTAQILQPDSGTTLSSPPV
Experimental: as §1

Sequence of Vascular endothelial growth factor receptor 1 (P17948 whole entry): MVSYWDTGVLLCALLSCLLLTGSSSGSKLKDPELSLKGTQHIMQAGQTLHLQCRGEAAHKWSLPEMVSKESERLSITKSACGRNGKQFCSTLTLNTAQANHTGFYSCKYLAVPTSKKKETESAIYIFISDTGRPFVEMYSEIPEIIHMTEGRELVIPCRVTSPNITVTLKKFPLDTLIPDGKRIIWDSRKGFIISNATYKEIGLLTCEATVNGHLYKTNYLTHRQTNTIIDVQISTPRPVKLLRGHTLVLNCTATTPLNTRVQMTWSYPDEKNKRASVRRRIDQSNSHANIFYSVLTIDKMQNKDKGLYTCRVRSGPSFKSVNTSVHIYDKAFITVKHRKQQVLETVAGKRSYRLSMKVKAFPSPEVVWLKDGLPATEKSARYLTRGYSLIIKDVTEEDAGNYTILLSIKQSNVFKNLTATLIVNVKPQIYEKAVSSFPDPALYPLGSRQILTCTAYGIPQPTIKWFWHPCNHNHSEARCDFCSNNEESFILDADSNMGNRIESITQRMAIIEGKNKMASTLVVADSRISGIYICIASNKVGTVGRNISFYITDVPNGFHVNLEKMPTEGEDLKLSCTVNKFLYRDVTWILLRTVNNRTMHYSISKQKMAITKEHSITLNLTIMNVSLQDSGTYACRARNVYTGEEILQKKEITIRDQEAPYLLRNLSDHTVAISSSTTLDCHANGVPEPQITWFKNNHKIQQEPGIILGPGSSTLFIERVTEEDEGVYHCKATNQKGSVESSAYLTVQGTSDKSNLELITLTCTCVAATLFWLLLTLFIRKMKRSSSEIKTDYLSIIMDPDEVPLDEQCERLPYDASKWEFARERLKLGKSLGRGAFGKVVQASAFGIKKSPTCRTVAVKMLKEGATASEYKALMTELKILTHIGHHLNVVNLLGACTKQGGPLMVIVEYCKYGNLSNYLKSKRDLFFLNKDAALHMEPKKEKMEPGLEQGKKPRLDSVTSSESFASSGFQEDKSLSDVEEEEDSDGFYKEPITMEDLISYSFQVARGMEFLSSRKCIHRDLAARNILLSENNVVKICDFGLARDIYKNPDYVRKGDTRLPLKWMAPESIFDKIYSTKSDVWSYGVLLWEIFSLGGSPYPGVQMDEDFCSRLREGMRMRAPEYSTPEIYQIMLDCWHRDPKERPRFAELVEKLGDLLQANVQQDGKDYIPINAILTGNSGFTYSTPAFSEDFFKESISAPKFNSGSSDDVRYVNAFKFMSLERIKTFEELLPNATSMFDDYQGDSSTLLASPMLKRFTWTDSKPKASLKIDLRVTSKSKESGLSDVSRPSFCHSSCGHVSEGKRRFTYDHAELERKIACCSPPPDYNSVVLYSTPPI
Sequence of Ephrin type-A receptor 2 (P29317 whole entry): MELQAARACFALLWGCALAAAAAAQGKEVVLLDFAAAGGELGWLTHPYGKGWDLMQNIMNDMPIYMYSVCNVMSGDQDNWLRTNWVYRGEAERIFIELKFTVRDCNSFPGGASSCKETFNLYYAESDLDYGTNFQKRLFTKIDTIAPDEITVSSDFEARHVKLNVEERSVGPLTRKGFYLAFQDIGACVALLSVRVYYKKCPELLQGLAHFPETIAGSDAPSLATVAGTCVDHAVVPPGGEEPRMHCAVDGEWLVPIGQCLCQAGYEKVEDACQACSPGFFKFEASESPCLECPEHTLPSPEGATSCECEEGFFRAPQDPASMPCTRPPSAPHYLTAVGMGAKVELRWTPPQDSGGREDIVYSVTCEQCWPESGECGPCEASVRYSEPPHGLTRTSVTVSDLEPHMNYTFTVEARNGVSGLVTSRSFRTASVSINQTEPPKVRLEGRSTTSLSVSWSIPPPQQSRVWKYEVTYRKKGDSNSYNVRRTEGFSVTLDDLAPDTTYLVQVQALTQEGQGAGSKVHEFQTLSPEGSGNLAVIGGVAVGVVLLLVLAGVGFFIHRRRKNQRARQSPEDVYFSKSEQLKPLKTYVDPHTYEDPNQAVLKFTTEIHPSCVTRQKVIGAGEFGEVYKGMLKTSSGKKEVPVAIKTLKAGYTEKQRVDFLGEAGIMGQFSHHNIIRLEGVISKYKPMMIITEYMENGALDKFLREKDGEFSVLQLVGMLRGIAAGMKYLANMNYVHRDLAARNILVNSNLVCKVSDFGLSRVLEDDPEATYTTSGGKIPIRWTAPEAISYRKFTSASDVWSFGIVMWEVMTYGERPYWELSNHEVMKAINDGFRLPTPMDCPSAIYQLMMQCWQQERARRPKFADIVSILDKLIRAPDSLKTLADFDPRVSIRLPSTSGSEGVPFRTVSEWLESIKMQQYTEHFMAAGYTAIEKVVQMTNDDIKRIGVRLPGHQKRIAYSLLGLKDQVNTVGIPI
Sequence of Receptor tyrosine-protein kinase erbB-2 (P04626 whole entry): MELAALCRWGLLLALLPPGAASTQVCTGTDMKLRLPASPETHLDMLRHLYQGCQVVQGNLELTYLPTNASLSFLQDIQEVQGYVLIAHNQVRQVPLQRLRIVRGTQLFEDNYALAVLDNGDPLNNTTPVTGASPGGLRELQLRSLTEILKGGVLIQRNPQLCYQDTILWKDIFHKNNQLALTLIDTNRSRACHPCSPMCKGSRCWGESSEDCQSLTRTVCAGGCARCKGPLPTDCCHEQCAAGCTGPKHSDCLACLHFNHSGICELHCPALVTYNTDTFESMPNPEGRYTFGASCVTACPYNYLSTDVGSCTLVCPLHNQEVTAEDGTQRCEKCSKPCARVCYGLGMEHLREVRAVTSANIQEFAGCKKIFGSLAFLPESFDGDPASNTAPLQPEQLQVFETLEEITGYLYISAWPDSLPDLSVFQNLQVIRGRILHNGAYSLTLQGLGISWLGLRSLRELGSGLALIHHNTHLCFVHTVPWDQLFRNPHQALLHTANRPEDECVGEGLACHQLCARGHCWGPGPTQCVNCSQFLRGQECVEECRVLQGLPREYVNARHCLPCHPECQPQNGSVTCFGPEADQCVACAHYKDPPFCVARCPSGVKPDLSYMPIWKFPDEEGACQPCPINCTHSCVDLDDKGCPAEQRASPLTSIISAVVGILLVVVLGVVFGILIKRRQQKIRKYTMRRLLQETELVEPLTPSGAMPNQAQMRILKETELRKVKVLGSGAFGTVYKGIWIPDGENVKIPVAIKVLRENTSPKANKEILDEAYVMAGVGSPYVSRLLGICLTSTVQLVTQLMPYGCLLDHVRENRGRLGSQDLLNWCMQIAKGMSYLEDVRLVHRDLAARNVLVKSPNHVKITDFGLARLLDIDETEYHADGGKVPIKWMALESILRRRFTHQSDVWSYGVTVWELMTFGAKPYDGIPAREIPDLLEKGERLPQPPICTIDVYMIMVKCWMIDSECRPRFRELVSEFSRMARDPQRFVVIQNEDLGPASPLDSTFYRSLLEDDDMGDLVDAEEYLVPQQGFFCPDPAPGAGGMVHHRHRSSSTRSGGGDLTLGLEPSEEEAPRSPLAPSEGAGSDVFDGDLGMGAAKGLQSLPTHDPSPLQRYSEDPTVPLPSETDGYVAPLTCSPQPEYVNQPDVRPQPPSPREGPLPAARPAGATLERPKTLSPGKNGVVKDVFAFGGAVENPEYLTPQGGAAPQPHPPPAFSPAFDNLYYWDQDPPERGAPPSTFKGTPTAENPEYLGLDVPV

| SMILES | IC50 [1] | IC50 [2] | IC50 (Ephrin type-B receptor 4) | IC50 (Ephrin type-A receptor 2) | IC50 [3] |
| --- | --- | --- | --- | --- | --- |
| COc1cc2c(Nc3ccc(Br)c(Cl)c3F)ncnc2cc1OC[C@H]1C[C@@H]2CN(C)C[C@@H]2C1 [US9796704, Entry 10] | in the range around 525 nM | in the range around 525 nM | – | – | – |
| COc1cc2c(Nc3ccc(F)c(Cl)c3F)ncnc2cc1OC[C@H]1C[C@@H]2CN(C)C[C@@H]2C1 [US9796704, Entry 11] | in the range around 525 nM | in the range around 525 nM | – | – | – |
| COc1cc2c(Nc3cc(Cl)c(Cl)cc3F)ncnc2cc1OC[C@H]1C[C@@H]2CN(C)C[C@@H]2C1 [US9796704, Entry 12] | < 50 nM | < 50 nM | – | – | – |
| COc1cc2c(Nc3cc(Cl)c(Br)cc3F)ncnc2cc1OC[C@H]1C[C@@H]2CN(C)C[C@@H]2C1 [US9796704, Entry 13] | < 50 nM | < 50 nM | – | – | – |
| COc1cc2c(Nc3ccc(Br)c(Cl)c3Cl)ncnc2cc1OC[C@H]1C[C@@H]2CN(C)C[C@@H]2C1 [US9796704, Entry 14] | in the range around 525 nM | in the range around 525 nM | – | – | – |
| COc1cc2c(Nc3ccc(Cl)c(Cl)c3)ncnc2cc1OC[C@H]1C[C@@H]2CN(C)C[C@@H]2C1 [US9796704, Entry 15] | < 50 nM | in the range around 525 nM | – | – | – |
| CCN1C[C@H]2C[C@@H](COc3cc4ncnc(Nc5ccc(Br)c(Cl)c5F)c4cc3OC)C[C@H]2C1 [US9796704, Entry 16] | in the range around 525 nM | in the range around 525 nM | – | in the range around 525 nM | in the range around 525 nM |
| COc1cc2c(Nc3ccc(Br)c(Cl)c3F)ncnc2cc1OC[C@@H]1C[C@@H]2CN(CC(C)C)C[C@@H]2C1 [US9796704, Entry 17] | in the range around 10500 nM | in the range around 525 nM | – | in the range around 525 nM | in the range around 525 nM |
| COc1cc2c(Nc3cc(Cl)c(Br)cc3F)ncnc2cc1OCC1CO[C@@H]2[C@@H](OC)CO[C@H]12 (stereo not given in full) [US9796704, Entry 41] | in the range around 525 nM | in the range around 525 nM | – | – | – |
| COc1cc2c(Nc3ccc(Br)c(Cl)c3F)ncnc2cc1OCC1CO[C@@H]2[C@@H](OC)CO[C@H]12 (stereo not given in full) [US9796704, Entry 44] | in the range around 10500 nM | in the range around 525 nM | – | – | – |
| COc1cc2c(Nc3ccc(Cl)c(Cl)c3)ncnc2cc1OCCNC1CC2CCC(C1)N2C (stereo not given) [US9796704, Entry 55] | in the range around 525 nM | in the range around 10500 nM | – | in the range around 10500 nM | – |
| COc1cc2c(Nc3ccc(Cl)c(Cl)c3)ncnc2cc1OCCC1CC2CCC(C1)N2C (stereo not given) [US9796704, Entry 57] | in the range around 525 nM | in the range around 10500 nM | in the range around 525 nM | – | – |
| COc1cc2c(Nc3ccc(Cl)c(Cl)c3)ncnc2cc1OC1CC2CCC(C1)N2C (stereo not given) [US9796704, Entry 60] | in the range around 525 nM | in the range around 525 nM | – | in the range around 10500 nM | in the range around 10500 nM |
| COc1cc2c(Nc3ccc(Br)c(Cl)c3Cl)ncnc2cc1O[C@H]1CO[C@H]2[C@@H]1OC[C@@H]2OC [US9796704, Entry 66] | in the range around 10500 nM | > 20000 nM | – | – | > 20000 nM |

Second part, the compound after the results:

| IC50 [1] | IC50 [2] | IC50 (Ephrin type-B receptor 4) | IC50 (Ephrin type-A receptor 2) | IC50 [3] | SMILES |
| --- | --- | --- | --- | --- | --- |
| in the range around 10500 nM | in the range around 10500 nM | in the range around 525 nM | – | – | COc1cc2c(Nc3ccc(Cl)c(Cl)c3F)ncnc2cc1OC[C@@H]1C[C@@H]2CN(CC(C)C)C[C@@H]2C1 [US9796704, Entry 8] |
| in the range around 525 nM | in the range around 525 nM | < 50 nM | – | – | COc1cc2c(Nc3ccc(Br)c(Cl)c3Cl)ncnc2cc1OC[C@H]1CN2CCOCC2CO1 (stereo not given in full) [US9796704, Entry 18] |
| in the range around 525 nM | in the range around 525 nM | in the range around 10500 nM | in the range around 10500 nM | in the range around 10500 nM | COc1cc2c(Nc3ccc(Cl)c(Cl)c3F)ncnc2cc1OC[C@@H]1CN2CCOCC2CO1 (stereo not given in full) [US9796704, Entry 22] |
| – | in the range around 525 nM | in the range around 10500 nM | in the range around 10500 nM | in the range around 10500 nM | COc1cc2c(Nc3ccc(Br)c(Cl)c3F)ncnc2cc1OC[C@@H]1CN2CCOCC2CO1 (stereo not given in full) [US9796704, Entry 23] |
| in the range around 525 nM | < 50 nM | – | – | – | COc1cc2c(Nc3ccc(Br)c(Cl)c3Cl)ncnc2cc1OC[C@@H]1CN2CCOCC2CO1 (stereo not given in full) [US9796704, Entry 27] |
| – | in the range around 10500 nM | in the range around 525 nM | in the range around 10500 nM | in the range around 525 nM | COc1cc2c(Nc3cc(Cl)c(Br)cc3F)ncnc2cc1OC[C@H]1CN2CCC[C@@H]2CO1 [US9796704, Entry 32] |
| in the range around 10500 nM | in the range around 10500 nM | in the range around 10500 nM | in the range around 10500 nM | – | COc1cc2c(Nc3ccc(Cl)c(Cl)c3F)ncnc2cc1OC[C@@H]1CN2CCC[C@H]2CO1 [US9796704, Entry 36] |
| < 50 nM | in the range around 10500 nM | in the range around 525 nM | in the range around 525 nM | < 50 nM | COc1cc2c(Nc3ccc(F)c(Cl)c3F)ncnc2cc1OC[C@@H]1CN2CCC[C@H]2CO1 [US9796704, Entry 38] |
| in the range around 525 nM | in the range around 10500 nM | in the range around 525 nM | in the range around 10500 nM | – | COc1cc2c(Nc3ccc(Br)c(Cl)c3F)ncnc2cc1OC[C@@H]1CN2CCC[C@H]2C(=O)N1 [US9796704, Entry 53] |
| – | in the range around 10500 nM | in the range around 525 nM | in the range around 10500 nM | in the range around 10500 nM | COc1cc2c(Nc3ccc(Cl)c(Cl)c3F)ncnc2cc1OC[C@H]1CN2CCC[C@@H]2C(=O)N1C [US9796704, Entry 54] |
